This data set has as its target human MDR1 (P-gp) (Homo sapiens (Human), UniProt P08183). The data set is described as follows: Transcellular transport in human MDR1-transfected LLC-PK1 cells. Format: in vitro ADME. The note with it: pH 7.4, MDR1-LLC-PK1, 5 μM test compound. As to the method: Digoxin and mannitol were purchased from Sigma-Aldrich (St. Louis, Mo.). 3H-digoxin and 14C-mannitol were purchased from PerkinElmer Life and Analytical Sciences (Boston, Mass.). Transport buffer was prepared using Hank's balanced salt solution (HBSS) supplemented with 10 mM Hepes, pH 7.4 and 0.1% BSA (HHBSS, Invitrogen, Grand Island, N.Y., BSA, Bovine Serum Albumin, Calbiochem, La Jolla, Calif.).
Cultures were incubated at 37° C. in a humidified (95% relative humidity) atmosphere of 5% CO2/95% air. The parental cell line LLC-PK1 (porcine renal epithelial cells) was purchased from American Type Culture Collection (ATCC, Manassas, Va.). Human MDR1 and Sprague-Dawley rat mdra1 transfectants in LLC-PK1 were generated at Amgen (Thousand Oaks, Calif.). Cells were cultured in Medium 199 supplemented with 2 mM L-glutamine, penicillin (50 units/mL), streptomycin (50 μg/mL), and 10% (v/v) fetal bovine serum (all from Invitrogen) (Schinkel et al, 1995).
LLC-PK1, MDR1-LLC-PK1, and mdr1a-LLC-PK1 cell monolayers were seeded onto porous (1.0 μm) polycarbonate 96-well transwell membrane filters (Millipore Corp., Billerica, Mass.) and cultured for six days with one media replacement on day four prior to transwell experiments. Cells were washed once with warmed HHBS prior to transwell experiments. Experiments were initiated by replacing the buffer in each compartment with 0.15 mL of HBSS containing 0.1% BSA with and without 5 μM of test compound in triplicate wells. The plates were incubated for two hours at 37° C. in an EVO incubator with shaking. Aliquots (100 μl) from both donor and receiver chambers were transferred to 96 well plates or scintillation vials. Protein was precipitated by addition of 200 μL acetonitrile containing 0.1% formic acid and prazosin (25 ng/mL) as internal standard. After vortexing and centrifugation at 3000 rpm for 20 min, 150 μL supernatant samples were transferred to a new plate containing 50 μL water for LC-MS/MS analysis. Transcellular transport of 3H-Digoxin was used as a positive control for Pgp. Paracellular permeability of 14C-Mannitol was used to measure the integrity of the monolayer. Sample radioactivity was measured using a liquid scintillation counter (Packard Tri-Carb 2910TR, PerkinElmer).
The apparent permeability coefficient (Papp) of all tested agents was estimated from the slope of cumulative amount (dQ) of the agent vs. time (dt), and the equation: Papp=(dQ/dt)/(A*C0)
where dQ/dt is the penetration rate of the agent […], A is the surface area of the cell layer on the Transwell (0.11 cm2), and CO is the initial concentration of the test compound (μM).

Chain of human MDR1 (P-gp) (P08183 whole entry): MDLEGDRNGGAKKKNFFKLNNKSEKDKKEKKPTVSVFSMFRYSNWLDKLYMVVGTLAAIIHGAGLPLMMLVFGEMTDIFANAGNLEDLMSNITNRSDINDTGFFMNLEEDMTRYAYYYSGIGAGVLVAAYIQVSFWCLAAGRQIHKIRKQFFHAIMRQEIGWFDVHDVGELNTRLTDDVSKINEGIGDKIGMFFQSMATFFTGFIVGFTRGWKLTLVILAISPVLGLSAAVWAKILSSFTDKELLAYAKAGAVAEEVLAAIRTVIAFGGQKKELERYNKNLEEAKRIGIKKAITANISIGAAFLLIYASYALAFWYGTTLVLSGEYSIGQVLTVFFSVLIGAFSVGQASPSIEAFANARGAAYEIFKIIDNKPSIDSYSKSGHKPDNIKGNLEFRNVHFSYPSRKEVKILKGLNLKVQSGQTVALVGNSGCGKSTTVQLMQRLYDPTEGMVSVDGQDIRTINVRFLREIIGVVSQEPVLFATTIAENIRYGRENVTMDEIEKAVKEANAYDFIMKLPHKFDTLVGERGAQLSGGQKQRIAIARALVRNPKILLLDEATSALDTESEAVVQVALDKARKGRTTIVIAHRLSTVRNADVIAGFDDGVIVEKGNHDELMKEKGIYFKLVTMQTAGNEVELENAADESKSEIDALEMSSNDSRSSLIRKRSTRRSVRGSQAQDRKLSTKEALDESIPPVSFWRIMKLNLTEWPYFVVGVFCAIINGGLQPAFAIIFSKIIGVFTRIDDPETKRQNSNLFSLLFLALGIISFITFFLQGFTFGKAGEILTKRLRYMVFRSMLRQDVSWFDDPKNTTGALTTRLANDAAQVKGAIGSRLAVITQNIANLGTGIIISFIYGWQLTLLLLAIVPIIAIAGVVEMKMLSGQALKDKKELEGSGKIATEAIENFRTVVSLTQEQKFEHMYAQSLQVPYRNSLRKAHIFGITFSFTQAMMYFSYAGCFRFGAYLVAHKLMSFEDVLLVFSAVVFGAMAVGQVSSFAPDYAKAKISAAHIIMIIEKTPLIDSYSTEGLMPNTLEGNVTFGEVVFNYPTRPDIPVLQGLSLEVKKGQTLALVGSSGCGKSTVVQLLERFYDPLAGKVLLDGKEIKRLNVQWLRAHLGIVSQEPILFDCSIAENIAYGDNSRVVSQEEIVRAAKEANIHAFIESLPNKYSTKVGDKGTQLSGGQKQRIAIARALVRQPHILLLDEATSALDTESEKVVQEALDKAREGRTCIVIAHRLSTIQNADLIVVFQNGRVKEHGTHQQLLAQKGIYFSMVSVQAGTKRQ

Take `CNC(=O)c1ccc(-c2nccnc2C2CCN(c3ccc4ccc(Cl)cc4n3)CC2)cc1F` [Example 1, 4-(3-(1-(7-Chloroquinolin-2-Yl)Piperidin-4-Yl)Pyrazin-2-Yl)-2-Fluoro-N-Methylbenzamide]: the efflux ratio at 2 h, 5 μM amounted to 2.9.

With `CNC(=O)c1ccc(-c2nccnc2C2CCN(c3ccc4ccc(F)cc4n3)CC2)cc1F` [Example 2, 2-Fluoro-4-(3-(1-(7-Fluoroquinolin-2-Yl)Piperidin-4-Yl) Pyrazin-2-Yl)-N-Methylbenzamide], the efflux ratio at 2 h, 5 μM came out at 2.4.

On to `CNC(=O)c1ccc(-c2nccnc2C2CCN(c3ccc4ccccc4n3)CC2)cc1F` [Example 3, 2-Fluoro-N-Methyl-4-(3-(1-(Quinolin-2-Yl)Piperidin-4-Yl)Pyrazin-2-Yl)Benzamide], for which the efflux ratio at 2 h, 5 μM is 2. For the molecule `CNC(=O)c1ccc(-c2nccnc2C2CCN(c3ccc4cc(F)ccc4n3)CC2)cc1F` [Example 4, 2-Fluoro-4-(3-(1-(6-Fluoroquinolin-2-Yl)Piperidin-4-Yl)Pyrazin-2-Yl)-N-Methylbenzamide], the efflux ratio at 2 h, 5 μM was 3.4. Then `CNC(=O)c1ccc(-c2nccnc2C2CCN(c3ccc4cccc(F)c4n3)CC2)cc1F` [Example 5, 2-Fluoro-4-(3-(1-(8-Fluoroquinolin-2-Yl)Piperidin-4-Yl)Pyrazin-2-Yl)-N-Methylbenzamide], with 2.5; and `CNC(=O)c1ccc(-c2nccnc2C2CN(c3ncc4ccccc4n3)C2)cc1F` [Example 6, 2-Fluoro-N-Methyl-4-(3-(1-(Quinazolin-2-Yl)Azetidin-3-Yl)Pyrazin-2-Yl)Benzamide], with 1.8. Consider `CNC(=O)c1ccc(-c2nccnc2C2CN(c3ccc4ccccc4n3)C2)cc1F` [Example 7, 2-Fluoro-N-Methyl-4-(3-(1-(Quinolin-2-Yl)Azetidin-3-Yl) Pyrazin-2-Yl)Benzamide], for which the efflux ratio at 2 h, 5 μM worked out at 2.95. Consider `CNC(=O)c1ccc(-c2nccnc2C2CN(c3ccc4ccc(F)cc4n3)C2)cc1F` [Example 8, 2-Fluoro-4-(3-(1-(7-Fluoroquinolin-2-Yl)Azetidin-3-Yl) Pyrazin-2-Yl)-N-Methylbenzamide], for which the efflux ratio at 2 h, 5 μM came to 2.8.

Regarding `CNC(=O)c1ccc(-c2nccnc2C2CN(c3ncc4ccc(F)cc4n3)C2)cc1F` [Example 9, 2-Fluoro-4-(3-(1-(7-Fluoroquinazolin-2-Yl)Azetidin-3-Yl)Pyrazin-2-Yl)-N-Methylbenzamide], the efflux ratio at 2 h, 5 μM came out at 1.8. For the molecule `CNC(=O)c1ccc(-c2nccnc2C2CN(c3ncc4ccc(Cl)cc4n3)C2)cc1F` [Example 10, 4-(3-(1-(7-Chloroquinazolin-2-Yl)Azetidin-3-Yl)Pyrazin-2-Yl)-2-Fluoro-N-Methylbenzamide], the efflux ratio at 2 h, 5 μM turned out to be 1.8.

For the molecule `CNC(=O)c1ccc(-c2nccnc2C2CN(c3ncc4cc(F)ccc4n3)C2)cc1F` [Example 11, 2-Fluoro-4-(3-(1-(6-Fluoroquinazolin-2-Yl)Azetidin-3-Yl)Pyrazin-2-Yl)-N-Methylbenzamide], the efflux ratio at 2 h, 5 μM is 1.75. With `CNC(=O)c1ccc(-c2nccnc2C2CN(c3ncc4cc(F)c(Cl)cc4n3)C2)cc1F` [Example 12, 4-(3-(1-(7-Chloro-6-Fluoroquinazolin-2-Yl)Azetidin-3-Yl)Pyrazin-2-Yl)-2-Fluoro-N-Methylbenzamide], the efflux ratio at 2 h, 5 μM is 1.85. For `CNC(=O)c1ccc(-c2nccnc2C2CN(c3ccc4cc(F)ccc4n3)C2)cc1F` [Example 13, 2-Fluoro-4-(3-(1-(6-Fluoroquinolin-2-Yl)Azetidin-3-Yl) Pyrazin-2-yl)-N-Methylbenzamide] the value was 3.02; for `CNC(=O)c1ccc(-c2nccnc2C2CN(c3ccc4ncc(Cl)cc4n3)C2)cc1F` [Example 14, 4-(3-(1-(7-Chloro-1,5-Naphthyridin-2-Yl)Azetidin-3-Yl)Pyrazin-2-Yl)-2-Fluoro-N-Methylbenzamide], 1.25.

The values above are taken from patent US8691986B2, “Azetidine and piperidine compounds useful as PDE10 inhibitors” (Amgen Inc., priority 2012, dated 2014).
